Article PMC8213057, “Targeting ALK2: An Open Science Approach to Developing Therapeutics for the Treatment of Diffuse Intrinsic Pontine Glioma” (Journal of Medicinal Chemistry, 2020)

How the values were obtained:
ASK1/MAP3K5 = target: T1, ASK1/MAP3K5 (Homo sapiens, UniProt Q99683); settings: 1 μM; Run 1, Run 2
T1 sequence (Q99683 1-1374): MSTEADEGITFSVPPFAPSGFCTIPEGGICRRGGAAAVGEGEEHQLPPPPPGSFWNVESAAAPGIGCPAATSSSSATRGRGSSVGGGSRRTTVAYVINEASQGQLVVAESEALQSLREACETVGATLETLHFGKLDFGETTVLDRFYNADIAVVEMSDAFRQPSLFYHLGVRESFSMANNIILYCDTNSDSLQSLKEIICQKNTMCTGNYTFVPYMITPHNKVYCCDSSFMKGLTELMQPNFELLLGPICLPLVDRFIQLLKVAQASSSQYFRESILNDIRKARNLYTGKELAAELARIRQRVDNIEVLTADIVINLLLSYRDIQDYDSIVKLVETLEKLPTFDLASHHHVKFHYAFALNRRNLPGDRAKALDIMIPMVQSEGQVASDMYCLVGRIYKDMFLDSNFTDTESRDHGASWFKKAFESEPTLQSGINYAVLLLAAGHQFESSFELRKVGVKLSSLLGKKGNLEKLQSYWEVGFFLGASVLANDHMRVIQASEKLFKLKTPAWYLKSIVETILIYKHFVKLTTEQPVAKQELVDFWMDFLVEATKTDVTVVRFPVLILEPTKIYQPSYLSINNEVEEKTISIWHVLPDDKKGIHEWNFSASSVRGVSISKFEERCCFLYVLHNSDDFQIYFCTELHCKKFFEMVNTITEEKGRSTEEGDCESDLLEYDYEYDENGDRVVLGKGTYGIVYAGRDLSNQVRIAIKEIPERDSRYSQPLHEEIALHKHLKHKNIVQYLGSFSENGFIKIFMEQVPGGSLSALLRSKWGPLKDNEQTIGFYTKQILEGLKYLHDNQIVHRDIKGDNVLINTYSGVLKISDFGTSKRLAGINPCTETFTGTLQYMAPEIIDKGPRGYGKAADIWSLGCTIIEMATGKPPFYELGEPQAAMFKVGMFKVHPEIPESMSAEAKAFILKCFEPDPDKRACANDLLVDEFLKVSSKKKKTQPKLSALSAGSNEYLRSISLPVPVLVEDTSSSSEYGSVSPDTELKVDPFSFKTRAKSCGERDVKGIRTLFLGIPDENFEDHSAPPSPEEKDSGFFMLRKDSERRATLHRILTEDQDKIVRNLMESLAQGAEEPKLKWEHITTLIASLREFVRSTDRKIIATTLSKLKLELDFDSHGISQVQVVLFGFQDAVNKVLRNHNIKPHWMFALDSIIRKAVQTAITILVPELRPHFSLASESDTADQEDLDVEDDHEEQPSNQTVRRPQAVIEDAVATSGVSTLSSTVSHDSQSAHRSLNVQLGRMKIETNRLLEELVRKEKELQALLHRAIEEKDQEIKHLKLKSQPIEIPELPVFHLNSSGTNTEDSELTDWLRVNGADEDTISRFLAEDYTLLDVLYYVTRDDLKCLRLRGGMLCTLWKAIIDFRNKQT

BRK = BRK (Homo sapiens, UniProt Q13882); settings: 1 μM; Run 1, Run 2
MYLK3 = target: T2, MYLK3 (Homo sapiens, UniProt Q32MK0); settings: 1 μM; Run 1, Run 2
T2 sequence (Q32MK0 1-819): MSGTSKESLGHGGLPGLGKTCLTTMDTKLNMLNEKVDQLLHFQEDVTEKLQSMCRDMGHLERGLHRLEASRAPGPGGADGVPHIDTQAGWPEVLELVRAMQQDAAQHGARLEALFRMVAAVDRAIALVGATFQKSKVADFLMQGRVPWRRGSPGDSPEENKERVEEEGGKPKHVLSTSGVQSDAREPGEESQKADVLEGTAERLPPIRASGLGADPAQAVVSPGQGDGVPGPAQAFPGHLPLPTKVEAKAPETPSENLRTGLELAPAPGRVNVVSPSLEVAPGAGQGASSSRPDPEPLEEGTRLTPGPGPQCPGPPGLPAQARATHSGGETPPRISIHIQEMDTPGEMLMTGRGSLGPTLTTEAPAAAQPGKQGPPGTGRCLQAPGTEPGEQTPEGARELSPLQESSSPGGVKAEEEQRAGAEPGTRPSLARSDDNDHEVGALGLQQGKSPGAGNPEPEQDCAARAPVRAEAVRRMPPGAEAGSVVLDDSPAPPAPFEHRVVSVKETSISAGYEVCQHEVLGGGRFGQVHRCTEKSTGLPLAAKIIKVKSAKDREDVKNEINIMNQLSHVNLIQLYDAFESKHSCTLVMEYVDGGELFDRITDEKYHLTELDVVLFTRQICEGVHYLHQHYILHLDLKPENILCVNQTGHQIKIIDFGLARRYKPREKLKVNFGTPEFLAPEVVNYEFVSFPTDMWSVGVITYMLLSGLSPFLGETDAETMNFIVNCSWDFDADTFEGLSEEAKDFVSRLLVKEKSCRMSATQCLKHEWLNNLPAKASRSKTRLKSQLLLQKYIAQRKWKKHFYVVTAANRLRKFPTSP

RIPK2 = RIPK2 (Homo sapiens, UniProt O43353); settings: 1 μM; Run 1, Run 2
MSK2/RPS6KA4 = MSK2/RPS6KA4 (Homo sapiens, UniProt O75676); experiment: biochemical; settings: read-out: % enzyme activity, 1 μM; Run 1, Run 2
PKCiota = target: T3, PKCiota (Homo sapiens, UniProt P41743); experiment: biochemical; settings: read-out: % enzyme activity, 1 μM; Run 1, Run 2
T3 sequence (P41743 1-596): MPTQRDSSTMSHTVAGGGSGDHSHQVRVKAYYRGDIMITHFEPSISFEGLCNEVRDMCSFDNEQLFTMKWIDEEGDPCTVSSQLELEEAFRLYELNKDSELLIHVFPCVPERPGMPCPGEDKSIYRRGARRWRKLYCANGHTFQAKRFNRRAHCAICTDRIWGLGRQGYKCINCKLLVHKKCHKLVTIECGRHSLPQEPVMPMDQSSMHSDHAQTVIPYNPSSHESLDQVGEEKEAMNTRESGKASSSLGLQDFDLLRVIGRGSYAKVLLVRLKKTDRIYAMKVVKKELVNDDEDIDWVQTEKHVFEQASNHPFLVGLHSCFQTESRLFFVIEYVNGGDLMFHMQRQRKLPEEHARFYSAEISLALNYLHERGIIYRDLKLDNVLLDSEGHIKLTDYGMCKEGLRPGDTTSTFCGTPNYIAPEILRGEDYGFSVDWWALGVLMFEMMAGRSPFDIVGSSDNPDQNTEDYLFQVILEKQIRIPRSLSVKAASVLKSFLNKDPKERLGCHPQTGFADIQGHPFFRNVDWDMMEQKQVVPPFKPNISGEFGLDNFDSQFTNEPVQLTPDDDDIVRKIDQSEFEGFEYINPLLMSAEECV

TRKC = TRKC (Homo sapiens, UniProt Q16288); experiment: biochemical; settings: read-out: % enzyme activity, 1 μM; Run 1, Run 2
Sequence of TRKC (Q16288 32-839): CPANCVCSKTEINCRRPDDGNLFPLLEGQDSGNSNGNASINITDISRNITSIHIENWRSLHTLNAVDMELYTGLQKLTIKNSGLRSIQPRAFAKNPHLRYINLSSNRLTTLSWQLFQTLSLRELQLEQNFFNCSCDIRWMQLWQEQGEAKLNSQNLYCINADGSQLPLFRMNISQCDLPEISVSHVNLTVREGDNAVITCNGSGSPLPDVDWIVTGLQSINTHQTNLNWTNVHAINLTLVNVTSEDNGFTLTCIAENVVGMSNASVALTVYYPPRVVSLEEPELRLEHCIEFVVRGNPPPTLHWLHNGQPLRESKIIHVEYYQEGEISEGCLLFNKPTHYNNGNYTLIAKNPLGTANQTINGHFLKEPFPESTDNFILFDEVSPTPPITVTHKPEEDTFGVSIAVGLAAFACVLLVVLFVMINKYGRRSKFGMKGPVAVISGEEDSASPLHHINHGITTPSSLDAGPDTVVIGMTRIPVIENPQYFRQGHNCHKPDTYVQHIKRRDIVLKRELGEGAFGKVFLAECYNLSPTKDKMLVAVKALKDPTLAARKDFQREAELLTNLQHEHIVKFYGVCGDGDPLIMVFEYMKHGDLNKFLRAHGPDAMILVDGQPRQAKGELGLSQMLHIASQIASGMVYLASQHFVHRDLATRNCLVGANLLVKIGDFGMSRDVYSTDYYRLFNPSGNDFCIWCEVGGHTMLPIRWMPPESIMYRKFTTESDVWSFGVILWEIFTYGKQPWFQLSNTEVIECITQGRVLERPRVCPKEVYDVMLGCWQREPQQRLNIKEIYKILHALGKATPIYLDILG

Sequence of RIPK2 (O43353 whole entry): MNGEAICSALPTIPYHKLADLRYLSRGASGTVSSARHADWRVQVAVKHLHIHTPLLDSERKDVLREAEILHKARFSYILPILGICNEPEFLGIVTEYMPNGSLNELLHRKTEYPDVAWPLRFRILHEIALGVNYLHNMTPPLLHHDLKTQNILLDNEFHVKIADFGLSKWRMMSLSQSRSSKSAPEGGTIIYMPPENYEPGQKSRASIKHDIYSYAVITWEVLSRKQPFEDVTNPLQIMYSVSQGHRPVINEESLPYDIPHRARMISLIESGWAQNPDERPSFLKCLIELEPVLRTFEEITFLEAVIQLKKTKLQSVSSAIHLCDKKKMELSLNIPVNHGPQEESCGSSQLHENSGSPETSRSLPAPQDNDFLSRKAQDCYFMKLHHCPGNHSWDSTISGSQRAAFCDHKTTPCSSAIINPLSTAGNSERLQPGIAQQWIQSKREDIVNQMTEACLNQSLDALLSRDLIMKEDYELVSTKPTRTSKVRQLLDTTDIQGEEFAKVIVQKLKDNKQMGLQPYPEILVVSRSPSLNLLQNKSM
Sequence of MSK2/RPS6KA4 (O75676 whole entry): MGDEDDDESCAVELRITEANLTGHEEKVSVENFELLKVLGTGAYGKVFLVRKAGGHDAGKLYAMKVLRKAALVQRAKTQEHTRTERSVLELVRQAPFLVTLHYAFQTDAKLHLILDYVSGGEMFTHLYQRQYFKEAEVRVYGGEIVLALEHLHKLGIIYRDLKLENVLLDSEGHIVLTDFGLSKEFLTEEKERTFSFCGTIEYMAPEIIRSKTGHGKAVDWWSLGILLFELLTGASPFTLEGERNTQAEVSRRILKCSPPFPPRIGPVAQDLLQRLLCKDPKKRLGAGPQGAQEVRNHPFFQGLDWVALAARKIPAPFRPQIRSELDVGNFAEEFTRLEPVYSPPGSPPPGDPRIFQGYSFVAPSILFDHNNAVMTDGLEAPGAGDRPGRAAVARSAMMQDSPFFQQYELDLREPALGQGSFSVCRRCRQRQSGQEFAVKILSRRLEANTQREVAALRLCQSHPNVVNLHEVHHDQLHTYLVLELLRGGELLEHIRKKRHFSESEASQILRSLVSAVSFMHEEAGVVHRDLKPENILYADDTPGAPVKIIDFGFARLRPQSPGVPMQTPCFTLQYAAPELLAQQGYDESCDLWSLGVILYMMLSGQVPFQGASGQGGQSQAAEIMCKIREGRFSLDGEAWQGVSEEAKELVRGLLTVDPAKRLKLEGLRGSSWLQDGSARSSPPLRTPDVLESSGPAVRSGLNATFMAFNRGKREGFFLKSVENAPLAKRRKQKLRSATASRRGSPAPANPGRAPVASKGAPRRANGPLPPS
Sequence of BRK (Q13882 whole entry): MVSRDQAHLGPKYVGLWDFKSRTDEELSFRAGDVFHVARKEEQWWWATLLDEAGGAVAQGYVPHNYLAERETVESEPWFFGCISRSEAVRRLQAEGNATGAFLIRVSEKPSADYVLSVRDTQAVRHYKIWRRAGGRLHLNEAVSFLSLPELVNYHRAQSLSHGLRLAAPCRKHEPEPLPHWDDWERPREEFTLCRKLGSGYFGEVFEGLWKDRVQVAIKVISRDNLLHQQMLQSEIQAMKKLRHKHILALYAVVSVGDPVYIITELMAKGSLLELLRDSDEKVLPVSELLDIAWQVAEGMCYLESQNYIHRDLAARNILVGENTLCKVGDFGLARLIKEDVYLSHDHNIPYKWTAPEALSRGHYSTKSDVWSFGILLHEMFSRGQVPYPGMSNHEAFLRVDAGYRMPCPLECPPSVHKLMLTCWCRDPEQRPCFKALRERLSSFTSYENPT

| SMILES | % enzyme activity (ASK1/MAP3K5) [%] | % enzyme activity (BRK) [%] | % enzyme activity (MYLK3) [%] | % enzyme activity (RIPK2) [%] | remaining activity at 1 µM (MSK2/RPS6KA4) [%] | remaining activity at 1 µM (PKCiota) [%] | remaining activity at 1 µM (TRKC) [%] |
| --- | --- | --- | --- | --- | --- | --- | --- |
| COc1cc(-c2cncc(-c3ccc(N4CCN(C)CC4)cc3)c2C)cc(F)c1C(N)=O [Compound 26a, 2-Fluoro-6-methoxy-4-(4-methyl-5-(4-(4-methylpiperazin-1-yl)phenyl)pyridin-3-yl)benzamide] | 94.20 | 58.28 | 98.90 | 66.31 | 97.1 | 107 | 103 |
| COc1cc(-c2cncc(-c3ccc(N4C[C@@H](C)N(C)[C@@H](C)C4)cc3)c2C)cc(F)c1C(N)=O [Compound 26c, 2-Fluoro-6-methoxy-4-(4-methyl-5-(4-((3R,5S)-3,4,5-trimethylpiperazin-1-yl)phenyl)pyridin-3-yl)benzamide] | 96.09 | 73.52 | 99.34 | 89.10 | 95.4 | 99.1 | 99 |
